Values joined by “and” are separate entries in the source; they are usually repeats but may differ in a detail not shown here. Equal entries are not always repeated. Numbers after ± are expanded uncertainties.
O=C(C(F)(F)C(F)(F)F)C(F)(C(F)(F)F)C(F)(F)F [dodecafluoro-2-methylpentan-3-one]
Conditions	thermal conductivity
387.99 K, 395 kPa, Gas, hot wire	0.0199 ± 0.00094 W/m/K
388 K, 395 kPa, Gas, hot wire	0.01971 ± 0.00093 W/m/K
388.06 K, 258 kPa, Gas, hot wire	0.01842 ± 0.00087 W/m/K
388.07 K, 128 kPa, Gas, hot wire	0.01819 ± 0.00086 W/m/K and 0.01818 ± 0.00086 W/m/K
388.08 K, 257 kPa, Gas, hot wire	0.01826 ± 0.00086 W/m/K
388.1 K, 26 kPa, Gas, hot wire	0.01771 ± 0.00083 W/m/K and 0.01756 ± 0.00083 W/m/K
388.1 K, 394 kPa, Gas, hot wire	0.01994 ± 0.00095 W/m/K
388.1 K, 395 kPa, Gas, hot wire	0.01983 ± 0.00094 W/m/K
388.18 K, 257 kPa, Gas, hot wire	0.01851 ± 0.00087 W/m/K
388.19 K, 128 kPa, Gas, hot wire	0.01818 ± 0.00086 W/m/K
388.19 K, 256 kPa, Gas, hot wire	0.0184 ± 0.00087 W/m/K
388.2 K, 128 kPa, Gas, hot wire	0.01804 ± 0.00085 W/m/K
388.2 K, 395 kPa, Gas, hot wire	0.01983 ± 0.00094 W/m/K
388.22 K, 394 kPa, Gas, hot wire	0.01966 ± 0.00093 W/m/K
388.23 K, 26 kPa, Gas, hot wire	0.01766 ± 0.00083 W/m/K and 0.0176 ± 0.00083 W/m/K
388.3 K, 256 kPa, Gas, hot wire	0.01853 ± 0.00087 W/m/K
388.31 K, 256 kPa, Gas, hot wire	0.01853 ± 0.00087 W/m/K
388.31 K, 396 kPa, Gas, hot wire	0.01994 ± 0.00095 W/m/K
388.32 K, 395 kPa, Gas, hot wire	0.01985 ± 0.00094 W/m/K
388.33 K, 127 kPa, Gas, hot wire	0.01792 ± 0.00084 W/m/K
388.33 K, 128 kPa, Gas, hot wire	0.01804 ± 0.00085 W/m/K
388.36 K, 26 kPa, Gas, hot wire	0.0176 ± 0.00083 W/m/K
388.37 K, 26 kPa, Gas, hot wire	0.01755 ± 0.00082 W/m/K
388.43 K, 254 kPa, Gas, hot wire	0.01861 ± 0.00088 W/m/K
388.43 K, 255 kPa, Gas, hot wire	0.01863 ± 0.00088 W/m/K
388.43 K, 396 kPa, Gas, hot wire	0.01991 ± 0.00095 W/m/K
388.45 K, 397 kPa, Gas, hot wire	0.01966 ± 0.00093 W/m/K
388.47 K, 127 kPa, Gas, hot wire	0.01796 ± 0.00084 W/m/K
388.48 K, 127 kPa, Gas, hot wire	0.0179 ± 0.00084 W/m/K
388.49 K, 516 kPa, Gas, transient hot wire	0.01836 ± 0.0011 W/m/K
388.5 K, 26 kPa, Gas, hot wire	0.01759 ± 0.00083 W/m/K
388.51 K, 26 kPa, Gas, hot wire	0.01751 ± 0.00082 W/m/K
388.53 K, 395 kPa, Gas, transient hot wire	0.01832 ± 0.0011 W/m/K
388.56 K, 254 kPa, Gas, hot wire	0.01874 ± 0.00088 W/m/K
388.56 K, 255 kPa, Gas, hot wire	0.01872 ± 0.00088 W/m/K
388.62 K, 127 kPa, Gas, hot wire	0.01791 ± 0.00084 W/m/K
388.62 K, 257 kPa, Gas, transient hot wire	0.01852 ± 0.0011 W/m/K
388.65 K, 26 kPa, Gas, hot wire	0.01756 ± 0.00083 W/m/K
388.66 K, 26 kPa, Gas, hot wire	0.01755 ± 0.00082 W/m/K
388.67 K, 515 kPa, Gas, transient hot wire	0.01836 ± 0.0011 W/m/K
388.68 K, 516 kPa, Gas, transient hot wire	0.01848 ± 0.0011 W/m/K
388.72 K, 394 kPa, Gas, transient hot wire	0.01847 ± 0.0011 W/m/K
388.73 K, 395 kPa, Gas, transient hot wire	0.01843 ± 0.0011 W/m/K
388.77 K, 619 kPa, Gas, transient hot wire	0.01829 ± 0.0011 W/m/K
388.79 K, 619 kPa, Gas, transient hot wire	0.0182 ± 0.0011 W/m/K
388.81 K, 257 kPa, Gas, transient hot wire	0.01868 ± 0.0011 W/m/K
388.82 K, 256 kPa, Gas, transient hot wire	0.01825 ± 0.0011 W/m/K
388.87 K, 514 kPa, Gas, transient hot wire	0.01853 ± 0.0011 W/m/K
388.93 K, 394 kPa, Gas, transient hot wire	0.01809 ± 0.0011 W/m/K and 0.01843 ± 0.0011 W/m/K
388.98 K, 619 kPa, Gas, transient hot wire	0.01836 ± 0.0011 W/m/K and 0.01835 ± 0.0011 W/m/K
389.04 K, 256 kPa, Gas, transient hot wire	0.01865 ± 0.0011 W/m/K
389.05 K, 256 kPa, Gas, transient hot wire	0.01868 ± 0.0011 W/m/K
389.08 K, 515 kPa, Gas, transient hot wire	0.01859 ± 0.0011 W/m/K
389.15 K, 395 kPa, Gas, transient hot wire	0.01856 ± 0.0011 W/m/K
389.19 K, 619 kPa, Gas, transient hot wire	0.01856 ± 0.0011 W/m/K and 0.01854 ± 0.0011 W/m/K
389.26 K, 256 kPa, Gas, transient hot wire	0.01862 ± 0.0011 W/m/K
389.27 K, 255 kPa, Gas, transient hot wire	0.0187 ± 0.0011 W/m/K
389.29 K, 513 kPa, Gas, transient hot wire	0.01867 ± 0.0011 W/m/K
389.29 K, 514 kPa, Gas, transient hot wire	0.01867 ± 0.0011 W/m/K
389.3 K, 67954 kPa, Liquid, transient hot wire	0.07227 ± 0.0015 W/m/K
389.31 K, 53809 kPa, Liquid, transient hot wire	0.06794 ± 0.0014 W/m/K
389.31 K, 53833 kPa, Liquid, transient hot wire	0.06806 ± 0.0014 W/m/K
389.31 K, 67979 kPa, Liquid, transient hot wire	0.0723 ± 0.0015 W/m/K
389.38 K, 396 kPa, Gas, transient hot wire	0.01859 ± 0.0011 W/m/K
389.38 K, 397 kPa, Gas, transient hot wire	0.01856 ± 0.0011 W/m/K
389.42 K, 40396 kPa, Liquid, transient hot wire	0.06362 ± 0.0013 W/m/K
389.42 K, 40406 kPa, Liquid, transient hot wire	0.06374 ± 0.0013 W/m/K
389.43 K, 67897 kPa, Liquid, transient hot wire	0.07231 ± 0.0015 W/m/K
389.43 K, 67923 kPa, Liquid, transient hot wire	0.07209 ± 0.0015 W/m/K
389.48 K, 29881 kPa, Liquid, transient hot wire	0.05966 ± 0.0012 W/m/K
389.5 K, 254 kPa, Gas, transient hot wire	0.01874 ± 0.0012 W/m/K
389.5 K, 53787 kPa, Liquid, transient hot wire	0.06829 ± 0.0014 W/m/K
389.51 K, 255 kPa, Gas, transient hot wire	0.01838 ± 0.0011 W/m/K
389.51 K, 53794 kPa, Liquid, transient hot wire	0.06804 ± 0.0014 W/m/K
389.53 K, 21435 kPa, Liquid, transient hot wire	0.05599 ± 0.0012 W/m/K
389.54 K, 21442 kPa, Liquid, transient hot wire	0.05607 ± 0.0012 W/m/K
389.56 K, 40379 kPa, Liquid, transient hot wire	0.06355 ± 0.0013 W/m/K
389.56 K, 40384 kPa, Liquid, transient hot wire	0.06363 ± 0.0013 W/m/K
389.57 K, 67853 kPa, Liquid, transient hot wire	0.07219 ± 0.0015 W/m/K
389.57 K, 67877 kPa, Liquid, transient hot wire	0.0722 ± 0.0015 W/m/K
389.58 K, 14725 kPa, Liquid, transient hot wire	0.05279 ± 0.0011 W/m/K
389.58 K, 14726 kPa, Liquid, transient hot wire	0.05278 ± 0.0011 W/m/K
389.63 K, 29870 kPa, Liquid, transient hot wire	0.05967 ± 0.0012 W/m/K
389.63 K, 29871 kPa, Liquid, transient hot wire	0.05964 ± 0.0012 W/m/K
